# According to US5204311A, “Ethanediimidic acid bis[(arylalkylidene)hydrazide] color-formers” (Minnesota Mining and Manufacturing Company, priority 1991, dated 1993):
# Experiments:
# Type in all cases: physicochemical
# [1] = Color (Hunter coordinates) of Ni complex, swabbed on Ni-coated receptor (CF) sheet; parameters: key to Hunter coordinate a / Hunter Coordinates a: Hunter a: +a red, -a green; key to Hunter coordinate b / Hunter Coordinates b: Hunter b: +b yellow, -b blue
# Protocol: In general, the colors of the complexes, as listed in Table 2 and Experiments 4, 6, and 7 below, were determined by preparing a 1% solution of the color-former or mixture of color-formers in an appropriate solvent. Unless otherwise indicated, the solvent was composed of a mixture of tributyl phosphate (26.5%), diethyl phthalate (17.6%), and cyclohexane (55.9%). The images were formed by applying two stripes of the solution to a substrate coated with a Ni^2+ coated receptor sheet using a cotton tipped applicator swab. Rapid and complete development of the image was achieved by passing the sheet through a hot shoe adjusted to 102° C., making a revolution every 10 seconds. The visually observed colors were measured and recorded.
# One method of color measurement is to determine the color's position in color space. One color space system is the Hunter System; see F. W. Billmeyer, Jr., and M. Saltzman, Principles of Color Technology; John Wiley & Sons; New York, N.Y.; Ch. 2 & 3, 1981. In this system three mutually perpendicular axes (L, a, and b) are needed to define a color. "L" (+z axis) represents the lightness or darkness of the image; "a" (x axis) represents the amount of red or green (+a is red, -a is green); and "b" (y axis) represents the amount of yellow or blue (+b is yellow, -b is blue). By measuring a material's L, a, and b values, the color of one sample can be compared with that of other samples. Another value used in the Hunter System is Chroma (C). Chroma is defined by the equation [C=(a^2 +b^2)^1/2 ] and represents the distance of the image coordinates from the origin. The greater the Chroma, the more intense the image. Chroma is used to compare images cf the same hue. Because the color of a sample is also dependent upon the color temperature of the illuminating source, the angle at which the sample is illuminated, the angle at which the illumination is reflected, and the angle of the retina illuminated, these all need to be specified. Many instruments have been developed to record these values. One such instrument is the HunterLab LabScan II. This instrument is capable of automatically determining the L, a, and b values for a given sample, and was used for the following examples.
# The L, a, and b color coordinates of the more uniform stripe were measured for 45°/0° reflectance on a HunterLab LabScan II, secondary observer, using illuminant C. The observed (image) color and the Hunter coordinates for Ni^2+ complexes of the yellow color-formers of this invention are given in Table 2.
# A 1% solution of the condensation product in the encapsulation fill mix was swabbed onto a carbonless paper CF sheet (sold by the 3M Co. St. Paul, Minn.) with a cotton swab. The reflectance spectra had Hunter coordinates of: […]
# [2] = Solubility in capsule fill solvents
# Protocol: The encapsulation process requires the color-forming ligand be dissolved in a solvent or mixed solvents, because of the nature of the procedure. Formation of a microcapsule shell as by condensation of urea or melamine with an aldehyde such as formaldehyde or mixtures of aldehydes to form the capsule shell is carried out in an acidic aqueous medium and the color-former solution must be insoluble and unreactive to these reagents for the encapsulation to proceed. Solvents commonly used include tributyl phosphate, diethyl phthalate, and cyclohexane. […] As mentioned above, solubility of yellow color-formers exemplified by structure I in nonaqueous solvents such as those used in the encapsulation process may be increased by substituting alkyl, aryl, aralkyl, alkenyl, or such groups for the hydrogens on the various positions available in the structure I above.
# (§1) This color observed on the CF sheet was yellow. […] Solubility in a solvent blend of tributyl phosphate, diethyl phthalate and cyclohexane (capsule solvents for preparing carbonless copy-paper) was >9% by weight. Thus the ligand is eminently suitable for encapsulation. The ligand is not volatile at 71 ° C. overnight.
# Solubility in a solvent blend of tributyl phosphate, diethyl phthalate and cyclohexane (capsule solvents for preparing carbonless copy-paper) was 3% by weight. Thus the ligand is eminently suitable for encapsulation. The ligand is not volatile at 71 ° C. overnight.
# *THE SOLUBILITY WAS DEEMED PREFERABLE IF IT WAS GREATER THAN 2% IN THE
# FILL MIX AT ROOM TEMPERATURE FOR 3 DAYS. THE FILL MIX COMPRISED
# TRIBUTYLPHOSPHATE (26.5%); DIETHYLPHTHALATE (17.6%); AND CYCLOHEXANE
# [3] = Stability in concentrated hydrochloric acid
# [4] = Color formation with zinc salts (zinc rosinate)
# Protocol: as §1
# This color observed on the CF sheet was yellow.
# [5] = Volatility: transfer from simulated donor sheet to receptor sheet; settings: 71 ° C. overnight
# Description: The method utilized in the experiments to both define and evaluate the level of volatility was as follows. A single sheet piece of Grade #10 (20×12 cm) cheesecloth (AF & F., Item No. 588033, American Fiber and Finishing, Inc., Burlington, Mass.) was placed between a simulated donor sheet and a receptor sheet of a carbonless paper construction. The simulated donor sheet comprised a sheet of paper saturated with color-former of structure I, which was used to simulate a CB sheet with ruptured capsules. Pressure was then applied for 24 hours by placing 9 pounds of paper on top of the sheets, to simulate storage conditions of the paper packages. The formation of color on the receptor sheet, due to transfer of volatile color-former thereto, was used as an indication that the particular color-former was less than optimally desirable for carbonless paper constructions, i.e., was volatile. A compound was considered generally to be nonvolatile, within the meaning of the term as used herein to define the present invention and thus to define color-formers most acceptable for use in carbonless image transfer arrangements, if no color was formed after the simulated test was run for about 24 hours at 25° C. In some instances, if no color was formed after storage at room temperature (25° C.), successively higher temperatures were used, as for example 49° C., 60° C., and 71° C. […]
# [6] = 1% solution in encapsulation fill mix swabbed onto 3M CF sheet (Experiments 2, 3)
# [7] = Ni(II) complex, swab concn. 1%, 45°/0° reflectance, illuminant C (Table 2)
smiles,measurement,setting,value
"CC(C)(C)c1cc(C=NN=C(N)C(N)=NN=Cc2cc(C(C)(C)C)cc(C(C)(C)C)c2O)c(O)c(C(C)(C)C)c1 [Compound 1, ethanediimidic acid bis[(3,5-di-t-butylsalicylidene)hydrazide]]",Hunter coordinate L,[1]; [6],79.8
same,Hunter coordinate a,[1]; [6],-2.1
same,Hunter coordinate b,[1]; [6],39.3
same,color observed on the CF sheet,"[1]; 1% solution swabbed (Experiments 2, 3)",yellow
same,Chroma,"[1]; C=(a^2 +b^2)^1/2, Ni(II) complex, swab concn. 1% (Table 2)",39.3
same,Image Color,"[1]; Ni(II) complex, swab concn. 1% (Table 2)",Yellow
same,Hunter Coordinates L,[1]; [7],79.8
same,Hunter Coordinates a,[1]; [7],-2.1
same,Hunter Coordinates b,[1]; [7],39.3
same,"Solubility in a solvent blend of tributyl phosphate, diethyl phthalate and cyclohexane",[2],> 9 % by weight
same,solubility in encapsulation / capsule solvents (in words),[2],very soluble in encapsulation solvents
same,Dye Solubility,[2]; 4320 min,> 9.0%
same,stability in concentrated hydrochloric acid,[3],stable
same,color formation when reacted with zinc rosinate,[4],does not form color
same,volatility,[5],not volatile
